Legend:
Renca-lacZ cells = test: in vivo mouse model of renal carcinoma lung metastasis (X-Gal staining); design: species or system Balb/c mice; settings: 2×400 mg/kg/day i.p. Na-VPA; Renca-lacZ cells into tail vein; vs glucose solution
Text: Mouse renal carcinoma cells (Renca) were established from a spontaneously arising kidney tumor in Balb/c mice. These cells efficiently form tumors in the lung upon transplantation into Balb/c mice through the tail vein and the tumorigenic properties of Renca cells have been well established (Murphy, et al., 1973, J. Natl. Cancer Inst., 50: 1013-1025; Hrushesky et al., 1973, J. Surg. Res., 15: 327-332; Williams et al., 1981, Res. Comm. Chem. Pathol. Pharmacol., 34: 345-349). The circulating tumor cells in this model setting represent a mimicry of situations frequently found in tumor patients when residual tumor cells are circulating in a patient's body and finally invade and home in various organs to grow as metastatic tumors. The inhibition of such minimal residual tumor diseases is one of the major aims of modern tumor therapy and can be experimentally examined in the in vivo model used here. Renca cells and the transfected cell clone Renca-lacZ (encoding for β-galactosidase) were grown in RPMI-1640 supplemented with 10% fetal calf serum (FCS). For metastasis formation in recipient mice […] Renca-lacZ cells in 100 μl PBS were injected into the lateral tail vein of female Balb/c mice at 4 to 6 weeks of age. […] Metastatic surface nodules were analyzed under a dissecting microscope and representative pictures were taken and are presented in FIG. 9.

[1] = test system: control cells (lin-, PINCO empty vector or uninfected); test: myeloid differentiation (Mac-1, FACS) of transduced hematopoietic progenitors; format: cell-based, Murine
Description: Murine hematopoietic progenitors (lin-) were transduced with a retroviral vector encoding PML-RAR, and GFP as a marker. […] Myeloid differentiation was scored by analyzing the presence of the differentiation marker Mac-1.
Murine hematopoietic progenitors were purified from the bone marrow of 129 mice on the basis of the absence of lineage differentiation markers (lin-). Lin- cells were grown for 48 hours in the presence of IL-3 (20 ng/ml), IL-6 (20 ng/ml), SCF (100 ng/ml), and then attached to non-tissue culture treated plates coated with Retronectin (Takara-Shuzo). Cells were then transduced by incubation with the supernatant from Phoenix ecotropic packaging cells (supplemented with fresh serum, and IL-3, IL-6, and SCF as above), transiently transfected with the control retroviral vector PINCO, or PINCO-PML-RAR. After 60 hours, GFP+cells were sorted by FACS, and seeded in methylcellulose plates supplemented as above, plus G-CSF (60 ng/ml) and GM-CSF (20 ng/ml). […] After 8-10 days, cells were analyzed for the presence of the myeloid differentiation marker Mac-1 by FACS. […] Uninfected cells, and cells infected with the control PINCO vector behaved identically (data not shown).
For FIG. 11 Lin- cells were transduced with the indicated vectors (control: PINCO, empty vector encoding GFP alone), and GFP+cells were sorted by FACS. […] Differentiation was assessed after 8-10 days by analysis of the myeloid differentiation marker Mac-1.

[2] = test system: A-549 non-small cell lung cancer cells; test: SRB-assay, reduction in total cellular biomass; format: cell-based, human; settings: 0.75 mM VPA in combination with Gemcitabine, 48 hours, compared to either alone
Description: (§1) The reduction in cellular biomass was measured by SRB-assay. For this assay cells were seeded in 96 well culture dishes at densities between 3000 and 8000 cells per well. […] Cultures were fixed with cold TCA producing a final TCA concentration of 10%. After 1 hour of incubation at 4° C. the cells were washed five times with water and air dried. Fixed cells were stained for 30 minutes with 0,4% (wt/vol) Sulforhodamine B (SRB) dissolved in 1% acetic acid and washed four times with 1% acetic acid to remove unbound dye. After air drying bound dye was solubilized with 10 mM unbuffered Tris base (pH 10,5) for 5 minutes. Optical densities were read on a Titertek Multiskan Plus spectrophotometric plate reader at 550 nm. Six test wells for each dose-response were set in parallel with 12 growth control wells per cell line. A measure of the cell population density at time 0 (To; the time at which the drug was added) was also made from 12 extra reference wells of cells fixed with TCA just prior to drug addition to the test plates. Background OD of complete medium with 5% FBS fixed and stained as described above was also determined in 12 separate wells. From the unprocessed OD data from each microtiter plate the background OD measurements (i.e. OD of complete medium plus stain and OD of cells at T0) were subtracted thus giving the reduction of cellular biomass of the cells.

[3] = test system: COLO320DM colon cancer cells; test: SRB-assay, reduction in total cellular biomass; format: cell-based, human; settings: 0.75 mM VPA in combination with Camptothecin, 48 hours
Description: as §1

[4] = test system: HCT-116 colon cancer cells; test: cell counts and propidium iodide cell cycle/apoptosis analysis; format: cell-based, human
Description: For FIG. 14 cells were seeded in 6 well culture dishes at 100000 cells/well. The day after, they were treated with the indicated drugs (5-FU: 2 μM 5-Fluoruracile; AD: 20 ng/ml adriamycin; IT: 3 μM irinothecan), and then cultured for further 48 hours. Cells were counted at 24 h and 48 h after treatment. All of the assays have been performed in triplicate.
For FIG. 15 cells were seeded in 6 well culture dishes at 100000 cells/well. […] (A), results of triplicate counts of viable cells. (B), cells were stained with propidium iodide after permeabilization and fixation. Results of a cell cycle analysis are presented as percentage (%) of cells in G1, S, G2+M, and sub-G1 (apoptotic cells): all of the assays have been performed in triplicate.
(A), results of triplicate counts of viable cells. (B), cells were stained with propidium iodide after permeabilization and fixation. Results of a cell cycle analysis are presented as percentage (%) of apoptotic cells: all of the assays have been performed in triplicate.
For FIG. 17 cells were seeded in 10 cm culture dishes (1 million cells/dish). […] The day after, they were treated with the following drugs: 5-FU (panel A), AD (B), or IT (C), at the concentrations as indicated for FIG. 14. Cells were analyzed at the day of treatment, 24 h, and 48 h following treatment. Upper panels, results of triplicate counts of viable cells. Lower panels, cells were stained with propidium iodide after permeabilization and fixation. Results of a cell cycle analysis are presented as percentage (%) of apoptotic cells: all of the assays have been performed in triplicate.

## CCCC(CCC)C(=O)O [VPA, 2-propylpentanoic acid]
Renca-lacZ cells
  formation of lung metastasis (number and size of metastatic nodules): effectively inhibited the formation of lung metastasis
[1]; VPA at higher concentrations (>3 mM), most likely induction of cell death, data not shown
  number of colonies: reduction in the number of colonies
[1]; VPA up to concentrations of 1 mM
  number of Mac-1+ cells and number of colonies: did not cause significant changes
[1]; VPA with cytokines
  differentiation of control cells: did not affect differentiation
[2]
  reduction in cellular biomass: clear additive reduction in cellular biomass
[3]
  reduction in cellular biomass: clear reduction in cellular biomass
[4]; 5-FU 2 μM in combination with VPA 1 mM, 72 hours
  cell growth: strong synergistic reduction in cell growth
[4]; 5-FU 2 μM in combination with VPA 1 mM, 72 hours, vs 5-FU alone
  apoptosis: much higher levels of apoptosis
[4]; VPA 1 mM pre-treatment three days, then VPA+AD (20 ng/ml) up to 48 hours
  apoptosis: dramatic synergistic enhancement of apoptosis
[4]; VPA 1 mM pre-treatment three days, then VPA+FU (2 μM) up to 48 hours
  apoptosis: dramatic synergistic enhancement of apoptosis
[4]; VPA 1 mM pre-treatment three days, then VPA+IT (3 μM) up to 48 hours
  apoptosis: dramatic synergistic enhancement of apoptosis
[4]; VPA alone, up to one week
  apoptosis: did not induce apoptosis
  cell number: only minimally affected cell number
